Laboratory results as given in ChEMBL document CHEMBL3045115, “Synthesis and antimycobacterial activity of novel 4-[5-(substituted phenyl)-1-phenyl-4,5-dihydro-1H-3-pyrazolyl]-2-methylphenol derivatives” (2006).
≈ marks a conversion by molar mass, not a printed value.

Test system: Mycobacterium tuberculosis
Experiment: Antimycobacterial activity against isoniazid-resistant Mycobacterium tuberculosis H37Rv ATCC 27294 using alamar blue staining by broth microdilution assay
Type: functional

Structure (SMILES) | MIC [µg/mL]
COc1ccc(C2CC(c3ccc(O)c(C)c3)=NN2c2ccccc2)cc1OC (configuration not stated) | 1.16 (≈ 2.99 µM)
COc1ccc(C2CC(c3ccc(O)c(C)c3)=NN2c2ccccc2)cc1 (configuration not stated) | 1.45 (≈ 4.05 µM)
Cc1cc(C2=NN(c3ccccc3)C(c3cccc([N+](=O)[O-])c3)C2)ccc1O (configuration not stated) | 1.96 (≈ 5.25 µM)
Cc1cc(C2=NN(c3ccccc3)C(c3ccc(F)cc3)C2)ccc1O (configuration not stated) | 0.62 (≈ 1.79 µM)
Cc1cc(C2=NN(c3ccccc3)C(c3ccc(Cl)cc3)C2)ccc1O (configuration not stated) | 1.24 (≈ 3.42 µM)
Cc1cc(C2=NN(c3ccccc3)C(c3c(Cl)cccc3Cl)C2)ccc1O (configuration not stated) | 0.92 (≈ 2.32 µM)
Cc1cc(C2=NN(c3ccccc3)C(c3ccccc3Cl)C2)ccc1O (configuration not stated) | 1 (≈ 2.76 µM)
NNC(=O)c1ccncc1 [ISONIAZID] | 0.63 (≈ 4.59 µM)
Cc1cc(C2=NN(c3ccccc3)C(c3ccccc3)C2)ccc1O (configuration not stated) | 1.6 (≈ 4.87 µM)
Cc1cc(C2=NN(c3ccccc3)C(c3ccco3)C2)ccc1O (configuration not stated) | 0.81 (≈ 2.54 µM)
Cc1cc(C2=NN(c3ccccc3)C(c3ccc(N(C)C)cc3)C2)ccc1O (configuration not stated) | 0.84 (≈ 2.26 µM)
COc1cc(C2CC(c3ccc(O)c(C)c3)=NN2c2ccccc2)cc(OC)c1OC (configuration not stated) | 1.86 (≈ 4.44 µM)
